Experimental findings from patent publication US9295624B2, “Amide derivative and whitening agent” (AJINOMOTO CO. INC., priority 2009, dated 2016) are described below.

One data set has as its system B16 melanom. Nature of the data set: Melanin production suppression test. The following applies: B16 melanoma cells, 3 days incubation, absorbance at 450 nm of medium, control = 100%; read-out: 50% melanin production-suppressive concentration IC50. It counts as cell-based. Here is the method:
B16 melanom (purchased from Dainippon Sumitomo Pharma Co., Ltd.) was cultured in DMEM (Dulbecco's Modified Eagle Medium, high glucose, containing 10% serum). After confluent, the cells were trypsinized and seeded in a 96-well plate. On the following day, after adhesion of the cells to the plate, the medium was replaced with DMEM containing each evaluation sample (control (no sample addition), sample of each Production Example) at a given evaluation concentration (diluted from […] according to sample), and the cells were incubated for 3 days. The 96-well plate was shaken in a plateshaker for 5 minutes, the absorbance at 450 nm was measured by a microplatereader (Benchmark microplatereader, manufactured by BIORAD), and the amount of melanin in the medium in each well was compared. The absorbance at 3 days after addition of a given concentration of each sample was shown in relative percentage based on the measurement value (absorbance) of control (no sample addition) as 100%. As Comparative Example, a similar test was performed using kojic acid (KoA), 4-hexylresorcinol, CS (N-(p-coumaroyl)serotonin or N-[2-(5-hydroxy-1H-indol-3-yl)ethyl]-3-(4-hydroxyphenyl)-2-propenamide) and FS (N-feruloylcoumaroylserotonin or N-[2-(5-hydroxy-1H-indol-3-yl)ethyl]-3-(4-hydroxy-3-methoxyphenyl-2-propenamide). The results are shown in FIGS. 1 to 5. The concentration necessary for suppressing production of melanin in each sample by 50%, based on the amount of melanin in the control as 100%, was calculated as 50% melanin production-suppressive concentration IC50 (μM). The results are shown in Table 2.
Kojic acid (KoA) used was purchased from Sigma-Aldrich Japan K.K., 4-n-hexylresorcinol used was purchased from TOKYO CHEMICAL INDUSTRY CO., LTD., and CS and FS used were synthesized by Ajinomoto Co., Inc.
`COc1cc(C=CC(=O)NCCc2c[nH]c3ccc(O)cc23)ccc1O` [FS, reference compound]: the IC50 came out at 42.4 µM.

The data set is the same for the next values; noted with them: Mus musculus, 72 h; B16 melanoma cells, 3 days incubation, absorbance at 450 nm of medium, control = 100%; read-out: 50% melanin production-suppressive concentration IC50.
`Cc1cc(/C=C/C(=O)NCCc2c[nH]c3ccc(O)cc23)ccc1O` [Example 17, N-[2-(5-hydroxy-1H-indol-3-yl)ethyl]-3-(3-methyl-4-hydroxyphenyl)-2-propenamide]: the IC50 was determined as 14.6 µM.

Turning to `O=C(/C=C/c1ccc(O)cc1O)NCCc1c[nH]c2ccccc12` [Example 30], the IC50 was 17.1 µM.

As to `O=c1cc(CO)occ1O` [kojic acid, reference compound], the IC50 came out at 315 µM.

For the molecule `O=C(NCCc1c[nH]c2ccc(O)cc12)c1ccc(O)c(O)c1` [Reference Example 2, reference compound], the IC50 is 1.9 µM.

For `COc1ccc(CCNC(=O)/C=C/c2ccc(O)cc2)cc1` [Example 24], the IC50 came out at 33.3 µM.

`O=C(C=Cc1ccc(O)cc1)NCCc1c[nH]c2ccc(O)cc12` [CS, N-[2-(5-hydroxy-1H-indol-3-yl)ethyl]-3-(4-hydroxyphenyl)-2-propenamide, reference compound]: the IC50 stood at 28.5 µM.

As for `O=C(/C=C/c1ccc(O)cc1)NCCc1c[nH]c2ccccc12` [Example 13], the IC50 worked out at 21.5 µM.

Take `O=C(NCCc1c[nH]c2ccc(O)cc12)c1cc(O)cc(O)c1` [Example 36]: the IC50 was determined as 22.4 µM.

On to `CCCCCCc1ccc(O)cc1O` [4-hexylresorcinol, reference compound], for which the IC50 is 23.5 µM.

On to `O=C(/C=C/c1ccc(O)cc1O)NCCc1c[nH]c2ccc(O)cc12` [Example 4, N-[2-(5-hydroxy-1H-indol-3-yl)ethyl]-3-(2,4-dihydroxyphenyl)-2-propenamide], for which the IC50 worked out at 10.7 µM.

In another data set the test system is B16 melanom. Briefly: Cytotoxicity test (neutral red assay). It counts as cell-based. To be noted: neutral red assay after melanin test, absorbance at 540 nm. Here is the method: After measurement of the absorbance in the melanin production suppression test of Experimental Example 1, the evaluation sample solution was removed from the plate, and each well was rinsed with DMEM (200 μl, high glucose, containing 10% serum). A medium containing NR (neutral red) was added to each well at 200 μl/well, and the plate was left standing for 2 hours at 37° C., 5% CO2 under a saturated vapor. The medium was removed, and a washing fixative solution (mixture of equal amounts of 2 wt % calcium chloride solution and 2 wt % formalin solution) was added at 200 μl/well. After 1 minute, the washing fixative solution was removed. An NR extract (acetic acid-ethanol, 200 μl/well) was added, and the mixture was shaken in a plateshaker for 15 minutes. NR uptake by viable cells was examined by measuring the absorbance of the NR extract at 540 nm by a microplatereader (Benchmark microplatereader, manufactured by BIORAD). The cytotoxicity of each sample was calculated as a relative percentage of the absorbance of NR extract of the cells added with a given concentration of each sample to the measurement value (absorbance) of a control NR extract (no sample) as 100%.
Regarding `O=C(NCCc1c[nH]c2ccc(O)cc12)c1cccc(O)c1O` [Example 32], the “cytotoxicity (NR uptake by viable cells)” value is “showed cytotoxicity”.

For `O=C(NCCc1c[nH]c2ccc(O)cc12)c1ccc(O)cc1O` [Example 33], the “cytotoxicity (NR uptake by viable cells)” value is given as “showed cytotoxicity”.
